From PubChem BioAssay (NCI)
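96-well plates; 48 h exposure; 5 concentrations. Endpoints by linear interpolation between flanking doses. Not reached: highest tested concentration assigned. GI50: concentration for 50% inhibition of growth. TGI marks complete inhibition of growth.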

Experiments:
Assay in all cases: NCI tumour cell line growth inhibition, 48 h
KM12 colon = system: KM12 colon
M14 melanoma = system: M14 melanoma
A498 renal = system: A498 renal
ACHN renal = system: ACHN renal
SN12C renal = system: SN12C renal
UO-31 renal = system: UO-31 renal
MOLT-4 leukemia = system: MOLT-4 leukemia
RPMI-8226 leukemia = system: RPMI-8226 leukemia
COLO 205 colon = system: COLO 205 colon
HOP-92 NSCLC = system: HOP-92 NSCLC

SMILES	GI50 (KM12 colon)	TGI (KM12 colon)	GI50 (M14 melanoma)	TGI (M14 melanoma)	GI50 (A498 renal)	TGI (A498 renal)	GI50 (ACHN renal)	TGI (ACHN renal)	GI50 (SN12C renal)	TGI (SN12C renal)	GI50 (UO-31 renal)	TGI (UO-31 renal)	GI50 (MOLT-4 leukemia)	TGI (MOLT-4 leukemia)	GI50 (RPMI-8226 leukemia)	TGI (RPMI-8226 leukemia)	GI50 (COLO 205 colon)	TGI (COLO 205 colon)	TGI (HOP-92 NSCLC)	GI50 (HOP-92 NSCLC)
COc1ccc(C#CC2=C(Br)C(=O)OC2)cc1	3.05 µM	11 µM	10.5 µM	34 µM	0.873 µM	12 µM	3.56 µM	13.2 µM	8.83 µM	16.9 µM	16.9 µM	> 50 µM	4.44 µM	> 50 µM	2.14 µM	> 50 µM	2.56 µM	29.1 µM	–	–
CC(C)(C)[Si](C)(C)O/N=C\c1cccc(O[Si](C)(C)C(C)(C)C)c1	–	32.2 µM	–	29.4 µM	–	–	–	32 µM	–	36.6 µM	–	29.6 µM	–	36.8 µM	–	37.4 µM	–	33.1 µM	28.8 µM	–
COc1ccc(C2C(C(=O)O)=C(CO)Oc3cc4c(cc32)OCO4)c(OC)c1 (stereo unspecified)	–	–	–	> 100 µM	–	–	–	> 100 µM	–	> 100 µM	–	> 100 µM	–	> 100 µM	–	> 100 µM	–	> 100 µM	> 100 µM	–
O=CCC(O)C(O)C(O)CO (stereo unspecified)	> 100 µM	> 100 µM	> 100 µM	> 100 µM	–	–	> 100 µM	> 100 µM	> 100 µM	> 100 µM	> 100 µM	> 100 µM	> 100 µM	> 100 µM	> 100 µM	> 100 µM	> 100 µM	> 100 µM	> 100 µM	1.74 µM
C=C(C)C1Cc2cc(C(C)=O)ccc2O1 (stereo unspecified)	–	> 100 µM	–	> 100 µM	–	–	–	> 100 µM	–	> 100 µM	–	> 100 µM	–	> 100 µM	–	> 100 µM	–	> 100 µM	> 100 µM	–
CC(C)(C)CC(C)(C)c1cc2c(O)c(c1)Cc1cc(C(C)(C)CC(C)(C)C)cc(c1O)Cc1cc(C(C)(C)CC(C)(C)C)cc(c1O)Cc1cc(C(C)(C)CC(C)(C)C)cc(c1O)Cc1cc(C(C)(C)CC(C)(C)C)cc(c1O)Cc1cc(C(C)(C)CC(C)(C)C)cc(c1O)Cc1cc(C(C)(C)CC(C)(C)C)cc(c1O)Cc1cc(C(C)(C)CC(C)(C)C)cc(c1O)C2	–	> 100 µM	–	> 100 µM	–	–	–	> 100 µM	–	> 100 µM	–	> 100 µM	–	> 100 µM	–	> 100 µM	–	> 100 µM	> 100 µM	–
CC(=O)Nc1ccc(S(=O)(=O)N/N=C(\C)CN2C(=O)c3ccccc3C2=O)cc1	–	> 100 µM	–	> 100 µM	–	> 100 µM	–	> 100 µM	–	> 100 µM	–	> 100 µM	–	> 100 µM	–	> 100 µM	–	> 100 µM	–	–
C=CCC(O)c1cc(OC)ccc1OC (stereo unspecified)	–	> 100 µM	–	> 100 µM	–	–	–	> 100 µM	–	> 100 µM	–	> 100 µM	–	–	–	> 100 µM	–	> 100 µM	> 100 µM	–
O=C1c2ccccc2-c2c1c1ccc3ccccc3c1n2-c1ccccc1	21.3 µM	> 100 µM	94.1 µM	> 100 µM	–	–	20.5 µM	40.2 µM	20.5 µM	50 µM	44.7 µM	> 100 µM	> 100 µM	> 100 µM	65.1 µM	> 100 µM	30.7 µM	> 100 µM	52.1 µM	16 µM
CCCCCC/C=C\CCCCCCCCCc1cccc(OC)c1O	–	> 100 µM	–	> 100 µM	–	> 100 µM	–	> 100 µM	–	> 100 µM	–	> 100 µM	–	> 100 µM	–	> 100 µM	–	> 100 µM	–	–
CCOc1cc2cnc3c4cc(OC)c(OC)cc4ccc3c2cc1OC	–	> 100 µM	–	> 100 µM	–	–	–	> 100 µM	–	> 100 µM	–	> 100 µM	–	> 100 µM	–	> 100 µM	–	> 100 µM	> 100 µM	–
Fc1cccc(-c2nc(-c3c[nH]c4ncccc34)cs2)c1	> 100 µM	> 100 µM	5.61 µM	> 100 µM	–	–	9.68 µM	> 100 µM	> 100 µM	> 100 µM	33.4 µM	> 100 µM	> 100 µM	> 100 µM	> 100 µM	> 100 µM	> 100 µM	> 100 µM	18.6 µM	0.128 µM
COc1ccc2c3c1OC1C4(CCC5C(C2)N(CC2CC2)CCC351)OCCO4 (stereo unspecified)	–	> 100 µM	–	> 100 µM	–	–	–	> 100 µM	–	> 100 µM	–	> 100 µM	–	> 100 µM	–	> 100 µM	–	> 100 µM	> 100 µM	–
CC1=C(c2ccccc2)CON(c2ccccc2)C1	–	> 100 µM	–	> 100 µM	–	–	–	> 100 µM	–	> 100 µM	–	97.5 µM	–	> 100 µM	–	> 100 µM	–	> 100 µM	–	–
C=CC(=O)OCCCS(=O)(=O)[O-].C=CC(=O)OCCCS(=O)(=O)[O-].NC1CCCCC1N.[Pt+4]	> 25 µM	> 25 µM	> 25 µM	> 25 µM	> 25 µM	> 25 µM	> 25 µM	> 25 µM	> 25 µM	> 25 µM	> 25 µM	> 25 µM	> 25 µM	> 25 µM	> 25 µM	> 25 µM	> 25 µM	> 25 µM	–	–
COc1cc2c(cc1OC)C(Cc1cc(Br)c(OC)c(OC)c1)=[N+](C)CC2	–	> 100 µM	–	> 100 µM	–	–	–	> 100 µM	–	> 100 µM	–	> 100 µM	–	–	–	> 100 µM	–	> 100 µM	> 100 µM	–
CC1=CC[C@@H]2C(=O)C=CC=C[C@H]12.[C-]#[O+].[C-]#[O+].[C-]#[O+].[Fe]	> 100 µM	> 100 µM	> 100 µM	> 100 µM	> 100 µM	> 100 µM	> 100 µM	> 100 µM	> 100 µM	> 100 µM	> 100 µM	> 100 µM	> 100 µM	> 100 µM	> 100 µM	> 100 µM	–	–	–	–
CSc1ccc(NC(=O)CCl)cc1	–	> 10 µM	–	3.73 µM	–	–	–	> 10 µM	–	> 10 µM	–	9.79 µM	–	> 10 µM	–	> 10 µM	–	8.02 µM	8.88 µM	–
Nc1ncnc2c1N=CN(Oc1ccccc1)N2	–	> 100 µM	–	> 100 µM	–	–	–	> 100 µM	–	43.7 µM	–	–	–	> 100 µM	–	> 100 µM	–	> 100 µM	> 100 µM	–
CC/C(=N/O)C(C)C(=O)CCC(=O)Nc1ccc(Cl)cc1 (stereo unspecified)	–	> 100 µM	–	> 100 µM	–	> 100 µM	–	> 100 µM	–	> 100 µM	–	> 100 µM	–	> 100 µM	–	> 100 µM	–	> 100 µM	–	–
OCC(O)C(OC1OC(CO)C(O)C(O)C1O)c1nn(-c2ccc(Cl)cc2)c2nc3cc(Cl)c(Cl)cc3nc12 (stereo unspecified)	–	> 100 µM	–	> 100 µM	–	> 100 µM	–	> 100 µM	–	> 100 µM	–	> 100 µM	–	> 100 µM	–	> 100 µM	–	–	–	–
COC(=O)c1ccc(N/C=C(/C#N)c2ccsc2)cc1	–	32.2 µM	–	–	–	15.7 µM	–	18.8 µM	–	–	–	32.5 µM	–	> 100 µM	–	> 100 µM	–	> 100 µM	–	–
Nc1ncc(-c2ccc3ncnc(N4CCc5cc(F)c(Cl)cc54)c3c2)cc1C(F)(F)F	2.47 µM	> 100 µM	2.74 µM	> 100 µM	–	–	0.784 µM	> 100 µM	0.754 µM	> 100 µM	0.33 µM	> 100 µM	2.13 µM	> 100 µM	2.33 µM	> 100 µM	–	–	–	–
CCOC(=O)CC1C(CNC(=O)NC)OC(n2cnc3c(NC(=O)Nc4ccccc4)ncnc32)C1O[Si](C)(C)C(C)(C)C (stereo unspecified)	3.95 µM	20.9 µM	2.51 µM	11.6 µM	3.35 µM	17.1 µM	8.55 µM	> 100 µM	9.1 µM	> 100 µM	12.1 µM	29.5 µM	2.39 µM	23.3 µM	1.09 µM	4.57 µM	3.84 µM	> 100 µM	–	–
CCCCCCCCCCCc1cc(=O)c2c(O)cccc2o1	–	> 100 µM	–	> 100 µM	–	–	–	> 100 µM	–	> 100 µM	–	> 100 µM	–	> 100 µM	–	> 100 µM	–	> 100 µM	> 100 µM	–
CCOc1cc(CCNC)c2c(ccc3ccc(OC)c(O)c32)c1OC	–	26.4 µM	–	28.5 µM	–	–	–	26.5 µM	–	36.7 µM	–	29.6 µM	–	26.4 µM	–	> 100 µM	–	42 µM	25.2 µM	–
COc1ccc(OC)c(-c2nc3sc(C)cn3c2/C=C2\C(=O)N(C)c3ccccc32)c1	21.9 µM	68.5 µM	25.4 µM	80.3 µM	29.3 µM	70.6 µM	28.7 µM	> 100 µM	20.6 µM	50.7 µM	21.1 µM	59.7 µM	15.9 µM	59 µM	13.1 µM	40.2 µM	25.8 µM	68 µM	–	–
COc1ccc(-c2cncn2-c2ccc(-c3nc4cc(OC)c(OC)c(OC)c4s3)cc2)cc1N	3.8 µM	> 100 µM	5.91 µM	> 100 µM	4.83 µM	> 100 µM	5.59 µM	> 100 µM	9.44 µM	> 100 µM	1.99 µM	7.57 µM	4 µM	> 100 µM	–	–	2.94 µM	20.6 µM	–	–
